Experimental data as given in PubChem BioAssay (NCI).
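These data come from cells grown in 96-well plates and exposed to compound for 48 hours at five concentrations. TGI denotes the concentration required for complete inhibition of growth.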

Experiments:
Test in all cases: inhibition of tumour cell growth, NCI panel, 48 h
U251 CNS = system: U251 CNS
SNB-75 CNS = system: SNB-75 CNS
KM12 colon = system: KM12 colon
OVCAR-4 ovarian = system: OVCAR-4 ovarian
RPMI-8226 leukemia = system: RPMI-8226 leukemia
IGROV1 ovarian = system: IGROV1 ovarian
SK-OV-3 ovarian = system: SK-OV-3 ovarian
HOP-62 NSCLC = system: HOP-62 NSCLC
OVCAR-3 ovarian = system: OVCAR-3 ovarian
BT-549 breast = system: BT-549 breast

Row | Compound | TGI (U251 CNS) | TGI (SNB-75 CNS) | TGI (KM12 colon) | TGI (OVCAR-4 ovarian) | TGI (RPMI-8226 leukemia) | TGI (IGROV1 ovarian) | TGI (SK-OV-3 ovarian) | TGI (HOP-62 NSCLC) | TGI (OVCAR-3 ovarian) | TGI (BT-549 breast)
1 | CC(C)(NC1=NCCO1)c1ccccc1 | > 100 µM | > 100 µM | > 100 µM | > 100 µM | > 100 µM | > 100 µM | > 100 µM | > 100 µM | > 100 µM | –
2 | CC(C)C(C/C=C1\CC(CO)(COC(=O)CC(C(C)C)C(C)C)OC1=O)C(C)C (configuration not stated) | 29.4 µM | 22.9 µM | 28.6 µM | 33 µM | – | 28.1 µM | 32.1 µM | 20.5 µM | 30.6 µM | 27.8 µM
3 | CC1CCC2(CC1)N=C1CCC(C)CC1C1(CCC(C)CC1)N2 (configuration not stated) | > 100 µM | > 100 µM | > 100 µM | > 100 µM | > 100 µM | > 100 µM | > 100 µM | – | > 100 µM | > 100 µM
4 | COc1nc2[nH]ccc2c(=O)n1C | > 100 µM | > 100 µM | > 100 µM | 41.5 µM | > 100 µM | > 100 µM | – | – | – | –
5 | CS(=O)(=O)O.[Ag] | 30.6 µM | 35.6 µM | 89.8 µM | 9.43 µM | 6.29 µM | 13.7 µM | 36.4 µM | 65.9 µM | 88.5 µM | 38 µM
6 | CN(C)CCn1c(=O)c2ccc3c4c(nn3CCN(C)C)c3ccccc3n(c1=O)c24 | 1.43 µM | 0.145 µM | 9.91 µM | 1.71 µM | 4.07 µM | 1.92 µM | 3.43 µM | 1.88 µM | 2.63 µM | 5.5 µM
7 | O=[N+]([O-])c1ccc(Cl)cc1C=NC12CC3CC(CC(C3)C1)C2 | > 100 µM | > 100 µM | > 91 µM | > 100 µM | 57.5 µM | > 100 µM | > 100 µM | > 100 µM | > 100 µM | > 100 µM
8 | C/C(N=Nc1nc2ccccc2o1)=C1/C=CC=CN1O | > 100 µM | – | > 100 µM | > 100 µM | > 100 µM | > 100 µM | > 100 µM | > 100 µM | 7.69 µM | > 100 µM
9 | Clc1ncnc2c1ncn2CCCCCCCCCCCCn1cnc2c(Cl)ncnc21 | 23.7 µM | – | 28.9 µM | 23.3 µM | 25.4 µM | 15.7 µM | 33.3 µM | 33 µM | 23.3 µM | –
10 | COC(=O)CCN(CCC(=O)OC)C1CC1 | > 100 µM | > 100 µM | > 100 µM | > 100 µM | > 100 µM | > 100 µM | > 100 µM | > 100 µM | – | –
11 | O=C1C(N=Nc2ccc(-c3nc4ccccc4[nH]3)cc2)NC(=S)N1c1ccccc1 (configuration not stated) | > 100 µM | > 100 µM | 37.5 µM | > 100 µM | 60.2 µM | > 100 µM | > 100 µM | > 100 µM | > 100 µM | > 100 µM
12 | OCCO[P+]1(OCCO)n2c3ccc2C(c2ccccc2)=C2C=CC(=N2)C(c2ccccc2)=c2ccc(n21)=C(c1ccccc1)C1=NC(=C3c2ccccc2)C=C1 | 1.25 µM | 0.273 µM | 0.21 µM | 2.17 µM | 0.0657 µM | – | 0.569 µM | 1.72 µM | 1.34 µM | 0.305 µM
13 | NCCCCNC1(c2cc3ccccc3s2)CCCCC1 | 5.49 µM | 9.9 µM | 10.7 µM | 20.5 µM | 6.1 µM | 13.1 µM | 28 µM | 20 µM | 9.28 µM | 25.4 µM
14 | NC(=O)CS(=O)CC(N)C(=O)O (configuration not stated) | > 100 µM | > 100 µM | > 100 µM | > 100 µM | – | > 100 µM | – | > 100 µM | > 100 µM | > 100 µM
15 | COc1cc(-c2nc3nc(N4CCN(C)CC4)ccc3[nH]2)c(OC)c2[nH]c(COC(C)=O)nc12 | 46.5 µM | > 100 µM | 83.3 µM | > 100 µM | – | > 100 µM | 82.1 µM | > 100 µM | – | > 100 µM
16 | O=C(O)C1SCCS1 | > 100 µM | > 100 µM | – | > 100 µM | > 100 µM | > 100 µM | > 100 µM | > 100 µM | > 100 µM | > 100 µM
17 | COC(=O)c1cccc(C(=O)OC)c1 | > 100 µM | > 100 µM | > 100 µM | > 100 µM | > 100 µM | – | > 100 µM | > 100 µM | – | –
18 | CCOC12SC(=Nc3ccc(C)cc3)NN1C(=S)N(C)N=C2C (configuration not stated) | > 100 µM | > 100 µM | > 100 µM | > 100 µM | > 100 µM | > 100 µM | – | > 100 µM | – | –
19 | CC(C)C1=CC23CCC4C(C)(C(=O)O)CCCC4(C)C2CC1C(C(=O)O)C3C(=O)O (configuration not stated) | > 100 µM | > 100 µM | > 100 µM | > 100 µM | – | > 100 µM | – | > 100 µM | > 100 µM | > 100 µM
20 | OCC(O)C(O)C(O)C(/C=N\Nc1ncnc2ccc(Br)cc12)=N/Nc1ncnc2ccc(Br)cc12 (configuration not stated) | > 100 µM | > 100 µM | > 100 µM | > 100 µM | > 100 µM | > 100 µM | > 100 µM | > 100 µM | > 100 µM | –
21 | c1ccc(C2=C(c3ccccc3)P(c3ccccc3)C2)cc1 (configuration not stated) | > 100 µM | > 100 µM | > 100 µM | > 100 µM | – | > 100 µM | > 100 µM | > 100 µM | > 100 µM | –
22 | CC(=O)Nc1ccc(-c2nnc(SCC(=O)Nc3ccccc3C)o2)cc1 | > 100 µM | > 100 µM | > 100 µM | > 100 µM | > 100 µM | > 100 µM | > 100 µM | > 100 µM | > 100 µM | –
23 | COc1cc(CNc2nc3cc(C(F)(F)F)ccc3nc2C)cc(OC)c1OC | 36.7 µM | 57.1 µM | 40 µM | – | 65.7 µM | 33.3 µM | – | 71.3 µM | > 100 µM | –
